According to patent US7563864B2, “Prolyl endopeptidase mediated destruction of T cell epitopes in whole gluten” (Celiac Sprue Research Foundation, priority 2004, dated 2009):

Assays:
Assay type in all cases: cell-based, human
Details in all cases: DQ2+ APC, 5 μM TG2-treated peptide, 3H thymidine incorporation
[1] = tested on: intestinal T cell line 502.1.2; test: T cell proliferation assay, polyclonal T cell line 502.1.2; set-up: key: −: no response; Stimulatory index (SI; T + APC + TG2-treated peptide divided by T + APC) of 3-10; ++: SI above 10
Source text: (§1) T cell assays—The generation of polyclonal gluten-specific T cell lines derived from ex vivo gluten challenged small intestinal biopsy specimens of adult Celiac Sprue patients have been described elsewhere. For this study 14 different intestinal T cell lines derived from 13 DQ2+celiac patients were selected based on two basic criteria; effective recognition of TG2-treated digests of gluten and significant responses to at least two different gluten epitopes (Table 2). The generation of intestinal T cell clones and the epitope specificity of these clones, except TCC 387.3, has been described elsewhere (10). The TCC 387.3 recognizes a TG2-dependent epitope, defined as γ-VI that is contained within residues 62-72 (PQQPFPQQPQQ) of recombinant γ-5 gliadin. The freeze-dried, proteolyzed gluten samples were dissolved in PBS with 2 mM CaCl2 and treated with 150 μg/ml human recombinant TG2 (14) or, in some experiments 200 μg/ml guinea pig transglutaminase (Sigma T-5398), for 2 hours at 37° C. The TG2-treated samples were incubated overnight in triplicates on U-bottomed 96 well plates with 75 000 cells per well of DQ2 homozygous, irradiated (75 Gy) EBV-transformed B-lymphoblastoid cell lines in a volume of 100 μl 15% pooled, inactivated human serum and RPMI1640. After the incubation 50 μl of freshly thawed T cells (1×10^6 cells/ml) were added to each well. The proliferation in the wells was evaluated by ^3H thymidine incorporation from 48-72 hours after the addition of the T cells.

[2] = tested on: intestinal T cell line 422.4.2; test: T cell proliferation assay, polyclonal T cell line 422.4.2; set-up: key: −: no response; Stimulatory index (SI; T + APC + TG2-treated peptide divided by T + APC) of 3-10; ++: SI above 10
Source text: as §1

[3] = tested on: intestinal T cell line 491.1.3; test: T cell proliferation assay, polyclonal T cell line 491.1.3; set-up: key: −: no response; Stimulatory index (SI; T + APC + TG2-treated peptide divided by T + APC) of 3-10; ++: SI above 10
Source text: as §1

[4] = tested on: intestinal T cell line 496.1.2; test: T cell proliferation assay, polyclonal T cell line 496.1.2
Source text: as §1

[5] = tested on: intestinal T cell line 446.1.3; test: T cell proliferation assay, polyclonal T cell line 446.1.3; set-up: key: −: no response; Stimulatory index (SI; T + APC + TG2-treated peptide divided by T + APC) of 3-10; ++: SI above 10
Source text: as §1

[6] = tested on: intestinal T cell line 451.1.1; test: T cell proliferation assay, polyclonal T cell line 451.1.1; set-up: key: −: no response; Stimulatory index (SI; T + APC + TG2-treated peptide divided by T + APC) of 3-10; ++: SI above 10
Source text: as §1

[7] = tested on: intestinal T cell line 437.1.3; test: T cell proliferation assay, polyclonal T cell line 437.1.3; set-up: key: −: no response; Stimulatory index (SI; T + APC + TG2-treated peptide divided by T + APC) of 3-10; ++: SI above 10
Source text: as §1

[8] = tested on: intestinal T cell line 488.3.1; test: T cell proliferation assay, polyclonal T cell line 488.3.1; set-up: key: −: no response; Stimulatory index (SI; T + APC + TG2-treated peptide divided by T + APC) of 3-10; ++: SI above 10
Source text: as §1

[9] = tested on: intestinal T cell line 437.1.1; test: T cell proliferation assay, polyclonal T cell line 437.1.1; set-up: key: −: no response; Stimulatory index (SI; T + APC + TG2-treated peptide divided by T + APC) of 3-10; ++: SI above 10
Source text: as §1

[10] = tested on: intestinal T cell line 432.2.1; test: T cell proliferation assay, polyclonal T cell line 432.2.1; set-up: key: −: no response; Stimulatory index (SI; T + APC + TG2-treated peptide divided by T + APC) of 3-10; ++: SI above 10
Source text: as §1

[11] = tested on: intestinal T cell line 494.1.1; test: T cell proliferation assay, polyclonal T cell line 494.1.1; set-up: key: −: no response; Stimulatory index (SI; T + APC + TG2-treated peptide divided by T + APC) of 3-10; ++: SI above 10
Source text: as §1

[12] = tested on: intestinal T cell line 482.1.4; test: T cell proliferation assay, polyclonal T cell line 482.1.4; set-up: key: −: no response; Stimulatory index (SI; T + APC + TG2-treated peptide divided by T + APC) of 3-10; ++: SI above 10
Source text: as §1

[13] = tested on: intestinal T cell line 461.1.4; test: T cell proliferation assay, polyclonal T cell line 461.1.4; set-up: key: −: no response; Stimulatory index (SI; T + APC + TG2-treated peptide divided by T + APC) of 3-10; ++: SI above 10
Source text: as §1

[14] = tested on: intestinal T cell line 421.1.4; test: T cell proliferation assay, polyclonal T cell line 421.1.4
Source text: as §1

Row | Sequence | Response to TG2-treated gluten peptides (stimulatory index) [1] | Response to TG2-treated gluten peptides (stimulatory index) [2] | Response to TG2-treated gluten peptides (stimulatory index) [3] | Response to TG2-treated gluten peptides (stimulatory index) [4] | Response to TG2-treated gluten peptides (stimulatory index) [5] | Response to TG2-treated gluten peptides (stimulatory index) [6] | Response to TG2-treated gluten peptides (stimulatory index) [7] | Response to TG2-treated gluten peptides (stimulatory index) [8] | Response to TG2-treated gluten peptides (stimulatory index) [9] | Response to TG2-treated gluten peptides (stimulatory index) [10] | Response to TG2-treated gluten peptides (stimulatory index) [11] | Response to TG2-treated gluten peptides (stimulatory index) [12] | Response to TG2-treated gluten peptides (stimulatory index) [13] | Response to TG2-treated gluten peptides (stimulatory index) [14]
1 | GIIQPQQPAQL [γ-II] | − | − | − | ++ (SI above 10) | ++ (SI above 10) | ++ (SI above 10) | − | − | − | − | − | − | − | + (Stimulatory index (SI; T + APC + TG2-treated peptide divided by T + APC) of 3-10)
2 | LQLQPFPQPQLPYPQPQLPYPQPQLPYPQPQPF [αG-33] | ++ (SI above 10) | ++ (SI above 10) | ++ (SI above 10) | ++ (SI above 10) | ++ (SI above 10) | ++ (SI above 10) | ++ (SI above 10) | ++ (SI above 10) | ++ (SI above 10) | ++ (SI above 10) | ++ (SI above 10) | ++ (SI above 10) | + (Stimulatory index (SI; T + APC + TG2-treated peptide divided by T + APC) of 3-10) | ++ (SI above 10)
3 | LQPQQPFPQQPQQPYPQQPQ [γ-III and γ-VI] | + (Stimulatory index (SI; T + APC + TG2-treated peptide divided by T + APC) of 3-10) | − | − | + (Stimulatory index (SI; T + APC + TG2-treated peptide divided by T + APC) of 3-10) | − | − | − | + (Stimulatory index (SI; T + APC + TG2-treated peptide divided by T + APC) of 3-10) | − | − | ++ (SI above 10) | − | + (Stimulatory index (SI; T + APC + TG2-treated peptide divided by T + APC) of 3-10) | + (Stimulatory index (SI; T + APC + TG2-treated peptide divided by T + APC) of 3-10)
